This is an account of results in ChEMBL document CHEMBL3259577, “Antagonists of the kappa opioid receptor” (Bioorg Med Chem Lett, 2014).

The target in data set [1] is T1, Delta-type opioid receptor (Homo sapiens, UniProt P41143). The data set is described as follows: Inhibition of delta opioid receptor (unknown origin) using SNC-80 by high content imaging beta-arrestin translocation assay.
Data set [2] has as its target T2, Mu-type opioid receptor (Cavia porcellus, UniProt P97266). The data set is described as follows: (§1) Antagonist activity at mu opioid receptor in guinea pig caudate assessed as inhibition of DAMGO-stimulated [35S]-GTP[gammaS] binding. Type of data set: functional. For orientation: GTPγS is a poorly hydrolysed GTP analogue; its binding reports G protein activation.
The nature of data set [3]: (§2) Antagonist activity at delta opioid receptor in guinea pig caudate assessed as inhibition of SNC-80-stimulated [35S]-GTP[gammaS] binding. The arrangement: species or system Cavia porcellus.
The target of data set [4] is Sigma non-opioid intracellular receptor 1 (Homo sapiens, UniProt Q99720). The data set is described as follows: Binding affinity to sigma-1 receptor (unknown origin).
For data set [5], the target named is Muscarinic acetylcholine receptor M4 (Homo sapiens, UniProt P08173). The data set is described as follows: Binding affinity to muscarinic M4 receptor (unknown origin).
In data set [6] the target is T3, Kappa-type opioid receptor (Homo sapiens, UniProt P41145). The data set is described as follows: Inhibition of kappa opioid receptor (unknown origin) using dynorphin A by high content imaging beta-arrestin translocation assay.
The target of data set [7] is T3, Kappa-type opioid receptor. Description: Inhibition of kappa opioid receptor (unknown origin) using dynorphin A by DiscoveryRx b-arrestin PathHunter assay.
The target in data set [8] is Muscarinic acetylcholine receptor M3 (Homo sapiens, UniProt P20309). Description: Binding affinity to muscarinic M3 receptor (unknown origin).
Data set [9] concerns the target Muscarinic acetylcholine receptor M2 (Homo sapiens, UniProt P08172). The data set is described as follows: Binding affinity to muscarinic M2 receptor (unknown origin).
Data set [10] deals with T3, Kappa-type opioid receptor. The data set is described as follows: Antagonist activity at human cloned kappa opioid receptor expressed in CHO cells assessed as inhibition of U50488-stimulated [35S]-GTP[gammaS] binding. The format is functional, cell-based.
The target of data set [11] is T1, Delta-type opioid receptor. The data set is described as follows: Agonist activity at human cloned delta opioid receptor expressed in CHO cells assessed as stimulation of [35S]-GTP[gammaS] binding. The format is functional, cell-based.
In data set [12] the target is T3, Kappa-type opioid receptor. Description: Agonist activity at human cloned kappa opioid receptor expressed in CHO cells assessed as stimulation of [35S]-GTP[gammaS] binding. Type of data set: functional, cell-based.
Data set [13] concerns the target T4, Mu-type opioid receptor (Homo sapiens, UniProt P35372). The data set is described as follows: Agonist activity at human cloned mu opioid receptor expressed in CHO cells assessed as stimulation of [35S]-GTP[gammaS] binding. Type of data set: cell-based.
Data set [14] deals with T4, Mu-type opioid receptor. The data set is described as follows: Inhibition of mu opioid receptor (unknown origin) using DAMGO by high content imaging beta-arrestin translocation assay.
Data set [15] deals with T4, Mu-type opioid receptor. The data set is described as follows: Displacement of [3H]diprenorphine from mu opioid receptor (unknown origin) expressed in CHO cells membranes. Type of data set: cell membranes. (Displacement assays read how much labelled ligand stays bound in the presence of the test substance.)
Data set [16] addresses T3, Kappa-type opioid receptor. Description: Displacement of [3H]diprenorphine from kappa opioid receptor (unknown origin) expressed in CHO cells membranes. The format is cell membranes.
The target of data set [17] is T1, Delta-type opioid receptor. Description: Displacement of [3H]diprenorphine from delta opioid receptor (unknown origin) expressed in CHO cells membranes. Type of data set: cell membranes.
For data set [18], the target named is Kappa-type opioid receptor (Cavia porcellus, UniProt P41144). The data set is described as follows: Antagonist activity at kappa opioid receptor in guinea pig ileum assessed as inhibition of U50488-stimulated [35S]-GTP[gammaS] binding. Type of data set: functional, tissue-based. As to conditions: read-out: pA2 (converted).
In data set [19] the target is T2, Mu-type opioid receptor. The data set is described as follows: Antagonist activity at mu opioid receptor in guinea pig ileum assessed as inhibition of DAMGO-stimulated [35S]-GTP[gammaS] binding. Type of data set: functional, tissue-based. The note with it: read-out: pA2 (converted).
For a further data set, the species on record is Cavia porcellus. Described as §2.
In data set [20] the target is Mu-type opioid receptor (Cavia porcellus) (UniProt P97266). Described as §1. The format is functional.
The target of data set [21] is Kappa-type opioid receptor (Cavia porcellus) (UniProt P41144).
A short description of data set [22]: Tmax in rat at 10 mg/kg, po. Type of data set: ADME, organism-based. The arrangement: dose 10 mg/kg, route oral. The note with it: in vivo.
Data set [23] can be described thus: AUC in rat at 10 mg/kg, po. The format is ADME, organism-based. The arrangement: dose 10 mg/kg, route oral. As to conditions: plasma.
The species named for a further data set is Homo sapiens. Description: Selectivity ratio for OPRK (unknown origin) to OPRM (unknown origin).
Data set [24] in a line: Half life in rat at 10 mg/kg, po. The arrangement: dose 10 mg/kg, route oral. As to conditions: in vivo. The format is ADME, organism-based.
Data set [25] is described as follows: Oral bioavailability in rat at 10 mg/kg. As to conditions: in vivo. Type of data set: ADME, organism-based.
The subject of a further data set is Rattus norvegicus. The data set is described as follows: Analgesic activity in po dosed rat assessed as inhibition of formalin response. The format is functional.
A short description of data set [26]: Clearance in rat at 1 mg/kg, iv. The format is ADME, organism-based. The arrangement: dose 1 mg/kg, route intravenous. The note with it: in vivo.
Data set [27] can be described thus: Cmax in rat at 1 mg/kg, iv. The format is ADME, organism-based. The arrangement: dose 1 mg/kg, route intravenous. The note with it: in vivo.
A short description of data set [28]: Cmax in rat at 10 mg/kg, po. The note with it: in vivo. The format is ADME, organism-based. The arrangement: dose 10 mg/kg, route oral.
A short description of data set [29]: AUC in rat at 1 mg/kg, iv. The format is ADME, organism-based. The arrangement: dose 1 mg/kg, route intravenous. The note with it: plasma.
Data set [30] is described as follows: Tmax in rat at 1 mg/kg, iv. The format is ADME, organism-based. The arrangement: dose 1 mg/kg, route intravenous. The note with it: in vivo.
Data set [31] can be described thus: Half life in rat at 1 mg/kg, iv. Type of data set: ADME, organism-based. As to conditions: in vivo. The arrangement: dose 1 mg/kg, route intravenous.

T3 sequence (P41145 whole entry): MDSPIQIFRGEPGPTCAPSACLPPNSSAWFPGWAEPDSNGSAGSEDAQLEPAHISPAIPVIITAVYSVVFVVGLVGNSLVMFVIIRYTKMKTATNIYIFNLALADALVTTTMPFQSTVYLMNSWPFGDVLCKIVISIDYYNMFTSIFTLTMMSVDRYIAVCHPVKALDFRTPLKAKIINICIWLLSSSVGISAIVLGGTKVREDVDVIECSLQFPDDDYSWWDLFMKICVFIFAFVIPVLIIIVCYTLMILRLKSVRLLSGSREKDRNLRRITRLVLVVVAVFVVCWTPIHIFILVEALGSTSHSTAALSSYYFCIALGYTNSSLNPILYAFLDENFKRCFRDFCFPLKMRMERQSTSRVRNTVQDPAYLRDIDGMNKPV
T2 sequence (P97266 whole entry): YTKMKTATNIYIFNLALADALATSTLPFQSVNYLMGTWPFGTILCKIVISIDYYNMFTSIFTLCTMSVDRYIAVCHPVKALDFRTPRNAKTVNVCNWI
T1 sequence (P41143 whole entry): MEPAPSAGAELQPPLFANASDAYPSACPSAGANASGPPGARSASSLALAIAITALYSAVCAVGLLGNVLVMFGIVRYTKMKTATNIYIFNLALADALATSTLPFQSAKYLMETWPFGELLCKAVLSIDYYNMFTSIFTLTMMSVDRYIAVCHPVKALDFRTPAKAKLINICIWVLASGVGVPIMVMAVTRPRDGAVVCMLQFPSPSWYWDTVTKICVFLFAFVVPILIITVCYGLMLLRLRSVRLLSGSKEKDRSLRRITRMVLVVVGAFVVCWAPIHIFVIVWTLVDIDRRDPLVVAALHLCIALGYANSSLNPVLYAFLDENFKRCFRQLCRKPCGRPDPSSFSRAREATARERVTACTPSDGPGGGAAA
T4 sequence (P35372 whole entry): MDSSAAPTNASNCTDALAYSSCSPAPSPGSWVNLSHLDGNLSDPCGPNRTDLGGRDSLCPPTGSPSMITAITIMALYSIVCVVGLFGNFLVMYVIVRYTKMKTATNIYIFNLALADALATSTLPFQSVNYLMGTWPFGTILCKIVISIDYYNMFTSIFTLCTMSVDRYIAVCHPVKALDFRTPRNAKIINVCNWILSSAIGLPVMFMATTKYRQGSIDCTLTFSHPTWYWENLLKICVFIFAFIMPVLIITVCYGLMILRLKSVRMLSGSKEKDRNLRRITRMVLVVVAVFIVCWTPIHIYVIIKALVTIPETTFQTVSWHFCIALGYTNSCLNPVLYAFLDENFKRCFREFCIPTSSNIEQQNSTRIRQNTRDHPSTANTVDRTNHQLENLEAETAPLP
Sequence of Kappa-type opioid receptor (Cavia porcellus, UniProt P41144) (P41144 whole entry): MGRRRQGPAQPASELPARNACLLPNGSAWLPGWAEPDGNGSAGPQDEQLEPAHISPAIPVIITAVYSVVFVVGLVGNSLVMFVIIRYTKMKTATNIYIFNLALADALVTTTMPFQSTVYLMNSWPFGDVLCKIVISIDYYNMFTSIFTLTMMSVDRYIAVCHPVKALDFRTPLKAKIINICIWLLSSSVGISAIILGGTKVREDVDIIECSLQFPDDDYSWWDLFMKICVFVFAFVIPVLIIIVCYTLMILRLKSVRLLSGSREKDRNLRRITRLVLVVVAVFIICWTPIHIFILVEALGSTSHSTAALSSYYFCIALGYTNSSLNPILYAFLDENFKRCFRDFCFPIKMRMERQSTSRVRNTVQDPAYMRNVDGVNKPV
Sequence of Kappa-type opioid receptor (Cavia porcellus) (P41144 whole entry): as above
Sequence of Sigma non-opioid intracellular receptor 1 (Q99720 whole entry): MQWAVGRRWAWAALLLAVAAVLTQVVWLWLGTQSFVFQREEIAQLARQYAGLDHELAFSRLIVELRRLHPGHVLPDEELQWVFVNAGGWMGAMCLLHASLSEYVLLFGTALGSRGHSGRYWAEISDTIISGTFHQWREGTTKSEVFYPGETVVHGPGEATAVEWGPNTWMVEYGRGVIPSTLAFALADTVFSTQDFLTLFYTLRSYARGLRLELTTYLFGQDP
Sequence of Muscarinic acetylcholine receptor M4 (P08173 whole entry): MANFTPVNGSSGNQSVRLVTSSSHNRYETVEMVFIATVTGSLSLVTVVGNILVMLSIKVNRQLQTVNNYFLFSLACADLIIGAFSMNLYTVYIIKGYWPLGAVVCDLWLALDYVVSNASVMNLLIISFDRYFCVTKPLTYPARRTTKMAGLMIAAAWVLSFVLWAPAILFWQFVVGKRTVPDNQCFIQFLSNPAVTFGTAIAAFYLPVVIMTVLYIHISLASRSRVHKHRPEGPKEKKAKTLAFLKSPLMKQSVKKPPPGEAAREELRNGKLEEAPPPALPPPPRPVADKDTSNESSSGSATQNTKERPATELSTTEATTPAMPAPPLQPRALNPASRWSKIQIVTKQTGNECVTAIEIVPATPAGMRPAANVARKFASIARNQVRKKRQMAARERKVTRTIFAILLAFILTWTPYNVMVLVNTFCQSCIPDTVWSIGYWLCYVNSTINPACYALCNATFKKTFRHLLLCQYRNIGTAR
Sequence of Mu-type opioid receptor (Cavia porcellus) (P97266 whole entry): as the sequence (P97266 whole entry) above
Sequence of Muscarinic acetylcholine receptor M3 (P20309 whole entry): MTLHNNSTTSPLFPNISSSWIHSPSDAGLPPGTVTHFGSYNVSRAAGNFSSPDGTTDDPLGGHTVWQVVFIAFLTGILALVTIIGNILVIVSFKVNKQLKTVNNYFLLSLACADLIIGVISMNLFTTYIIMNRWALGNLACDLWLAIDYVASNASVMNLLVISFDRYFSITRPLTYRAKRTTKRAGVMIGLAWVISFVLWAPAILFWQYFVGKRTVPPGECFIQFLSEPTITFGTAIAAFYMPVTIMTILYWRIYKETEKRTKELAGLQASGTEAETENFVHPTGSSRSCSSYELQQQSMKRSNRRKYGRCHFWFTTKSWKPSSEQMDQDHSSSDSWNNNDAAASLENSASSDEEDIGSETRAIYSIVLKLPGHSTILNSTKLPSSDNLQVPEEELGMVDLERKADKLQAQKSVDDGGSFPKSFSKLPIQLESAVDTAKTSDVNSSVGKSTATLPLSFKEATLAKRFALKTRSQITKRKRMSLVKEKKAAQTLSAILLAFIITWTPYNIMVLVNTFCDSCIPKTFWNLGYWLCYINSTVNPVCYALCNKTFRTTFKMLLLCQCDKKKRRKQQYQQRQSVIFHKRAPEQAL
Sequence of Muscarinic acetylcholine receptor M2 (P08172 whole entry): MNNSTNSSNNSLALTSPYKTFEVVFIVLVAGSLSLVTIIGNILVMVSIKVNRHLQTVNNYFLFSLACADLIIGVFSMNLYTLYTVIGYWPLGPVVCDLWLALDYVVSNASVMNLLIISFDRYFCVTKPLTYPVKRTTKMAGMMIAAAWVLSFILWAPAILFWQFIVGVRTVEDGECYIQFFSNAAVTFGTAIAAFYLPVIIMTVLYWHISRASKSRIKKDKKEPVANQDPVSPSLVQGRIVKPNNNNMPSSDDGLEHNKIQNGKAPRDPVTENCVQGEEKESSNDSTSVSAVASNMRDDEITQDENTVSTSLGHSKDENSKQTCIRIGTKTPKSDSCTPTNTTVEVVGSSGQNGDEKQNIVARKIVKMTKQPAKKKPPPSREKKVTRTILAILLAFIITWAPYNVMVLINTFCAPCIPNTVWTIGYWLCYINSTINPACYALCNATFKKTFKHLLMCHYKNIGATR

Consider `CCN(CCNC(=O)c1ccc(CNS(=O)(=O)c2ccc(C)cc2)cc1)Cc1ccccc1`, for which the IC50 (usually the concentration needed to halve the response being measured) in data set [1] was above 32 µM.
As to `CC(C)[C@@H](CN1CC[C@@](C)(c2cccc(O)c2)[C@@H](C)C1)NC(=O)[C@H]1Cc2ccc(O)cc2CN1` [JDTIC], the Ki (commonly the equilibrium dissociation constant of an inhibitor or competing ligand from its target) at Mu-type opioid receptor [2] is 0.00216 µM; in data set [3], above 0.3 µM.
As for `Cc1ccc(S(=O)(=O)NCc2ccc(C(=O)NCCN(Cc3ccccc3)C(C)(C)C)cc2)cc1`, the IC50 in data set [1] was above 32 µM; in data set [6], 0.03 µM; in data set [7], 0.06 µM. In addition, the Ki in [4], in data set [5], in data set [8] and in [9] was below 1 µM each time.
For `CC1CN(CCCc2ccccc2)C2C[C@H](N)CC1(c1cccc(O)c1)C2` (stereo partly specified), in [10], the Ke amounted to 10.1 nM. Moreover, the results for the EC50 (in data set [11]; in data set [12]; at Mu-type opioid receptor [13]) were 7.5 µM, above 5 µM and 19.5 µM, respectively.
As for `Cc1ccc(S(=O)(=O)NCc2ccc(C(=O)NCCCN(Cc3ccccc3)C(C)C)cc2)cc1`, the IC50 in data set [1] is above 32 µM; against Mu-type opioid receptor [14] it was above 32 µM; in [6] it was above 32 µM; in data set [7], above 20 µM.
Consider `C[C@H]1CN(CCOC(=O)[C@H]2Cc3ccc(O)cc3CN2)CC[C@@]1(C)c1cccc(O)c1`, for which the Ki was 0.186 µM at Mu-type opioid receptor [15], 0.159 µM in [16] and 0.475 µM in data set [17]. In addition, the Kb in data set [18] is 0.135 µM; at Mu-type opioid receptor [19], 0.0977 µM.
As to `CC(C)[C@@H](CN1CC[C@@](C)(c2cccc(O)c2)[C@@H](C)C1)NC(=O)[C@@H](N)Cc1ccc(O)cc1`, the Ke in the data set filed under Cavia porcellus turned out to be 452 nM.
For `Cc1ccnc2c1n1cccc1c(=O)n2CC(=O)NCCCN1CCN(c2ccc(Cl)cc2)CC1`, the IC50 in data set [1] was above 32 µM; against Mu-type opioid receptor [14], above 32 µM; in [7] it was 0.69 µM.
As to `CC(C)CC(=O)N1Cc2cc(O)ccc2C[C@@H]1C(=O)N[C@H](CN1CC[C@@](C)(c2cccc(O)c2)[C@@H](C)C1)C(C)C`, the Ke amounted to 29 nM in data set [20], 0.16 nM in data set [21] and 628 nM in the data set filed under Cavia porcellus.
Take `Cc1cc(C)cc([C@@H]2CCCN2Cc2ccc(Oc3ccc(C(N)=O)cc3F)cc2)c1` [ATICAPRANT]: the results for the Tmax in data set [22] and in data set [30] were 2 h and 0 h, respectively. Also, the AUC (in general, the area under the concentration-time curve, a measure of exposure) was 466 ng·h/mL in [23] and 186 ng·h/mL in data set [29]. Also, in the data set listed under Homo sapiens, the Ratio worked out at 43. The values for the half-life in [24] and in [31] were 3.8 h and 1.8 h, respectively. In addition, the bioavailability – broadly, dose-corrected exposure relative to a reference, in per cent – in [25] came to 25.4%. The ED50 (as a rule, the midpoint of the dose-response relation) in the data set with Rattus norvegicus came out at 0.4 mg/kg. The clearance (usually the volume of plasma or blood freed of the substance per unit of time) in data set [26] amounted to 89.3 mL/min/kg. Further, the Cmax (commonly the maximum level reached in the sampled fluid or tissue) in data set [27] was 334 ng/mL; in data set [28] it was 95 ng/mL.
As for `Cc1ccc(S(=O)(=O)NCc2ccc(C(=O)NCCN(Cc3ccc(Br)cc3)C(C)C)cc2)cc1`, the IC50 (in [1]; at Mu-type opioid receptor [14]) was above 32 µM each time.
Regarding `COc1ccc(N2CCN(CCCNC(=O)Cn3c(=O)c4cccn4c4cccnc43)CC2)cc1`, the 50% inhibitory concentration (IC50) is above 32 µM in data set [1], above 32 µM against Mu-type opioid receptor [14], 1.3 µM in data set [6] and 1.95 µM in data set [7].
Consider `COc1ccc(N2CCN(CCCNC(=O)Cn3c(=O)c4cccn4c4ccccc43)CC2)cc1`, for which the IC50 (in data set [1]; against Mu-type opioid receptor [14]) was above 32 µM in each case.
For the compound `C[C@H]1CN(CCCOC(=O)[C@H]2Cc3ccc(O)cc3CN2)CC[C@@]1(C)c1cccc(O)c1`, the Ki at Mu-type opioid receptor [15] was determined as 0.00655 µM; in [16] it was 0.0252 µM; in [17], 0.221 µM. In addition, the Kb in [18] is 0.174 µM; on Mu-type opioid receptor [19], 0.0933 µM.
On to `CC1CN(CCCc2ccccc2)C2C[C@H](NCC3CC3)CC1(c1cccc(O)c1)C2` (stereo partly specified), for which the EC50 (usually the concentration that produces a half-maximal response) was above 5 µM in data set [11], above 5 µM in data set [12] and 130 µM at Mu-type opioid receptor [13].
For the compound `COc1ccc(N2CCN(CCCNC(=O)Cn3c(=O)c4cccn4c4c(C)ccnc43)CC2)c(OC)c1`, the IC50 in [1] was above 32 µM; in data set [6], 0.004 µM; in data set [7], 0.19 µM.
